Assay results published in ChEMBL document CHEMBL1156666, “Jerantinines A-G, cytotoxic Aspidosperma alkaloids from Tabernaemontana corymbosa” (J Nat Prod, 2008).

Assays:
[1] = Cytotoxicity against vincristine resistant human KB/VJ300 cells; format: functional, cell-based
[2] = Cytotoxicity against vincristine sensitive human KB/S cells; format: functional, cell-based

SMILES | IC50 [1] [nM] | IC50 [2] [nM]
CC[C@]12C=CCN3CC[C@]4(C(=C(C(=O)OC)C1)Nc1cc(OC)c(OC)cc14)[C@@H]32 [10-O-METHYLJERANTININE A] | 13600 | 12000
CC[C@@]12CC(C(=O)OC)=C3Nc4cc(OC)c(OC)cc4[C@@]34CCN(C[C@@H]3O[C@@H]31)[C@@H]24 [10-O-METHYLJERANTININE B] | 10700 | 7360
CC[C@]12C=CCN3CC[C@]4(C(=C(C(=O)OC)C1)Nc1cc(OC)c(OC(C)=O)cc14)[C@@H]32 [JERANTININE A ACETATE] | 830 | 1040
CC[C@]12C=CCN3CC[C@]4(C(=C(C(=O)OC)C1)Nc1cc(OC)c(O)cc14)[C@@H]32 [JERANTININE A] | 1730 | 1990
CC[C@@]12CC(C(=O)OC)=C3Nc4cc(OC)c(OC(C)=O)cc4[C@@]34CCN(C[C@@H]3O[C@@H]31)[C@@H]24 [JERANTININE B ACETATE] | 750 | 700
CC[C@@]12CC(C(=O)OC)=C3Nc4cc(OC)c(O)cc4[C@@]34CCN(C[C@@H]3O[C@@H]31)[C@@H]24 [JERANTININE B] | 950 | 1110
CC[C@]12C=CC(=O)N3CC[C@]4(C(=C(C(=O)OC)C1)Nc1cc(OC)c(O)cc14)[C@@H]32 [JERANTININE C] | 1540 | 810
CC[C@@]12CC(C(=O)OC)=C3Nc4cc(OC)c(O)cc4[C@@]34CCN(C(=O)[C@@H]3O[C@@H]31)[C@@H]24 [JERANTININE D] | 950 | 680
CC[C@]12CCCN3CC[C@]4(C(=C(C(=O)OC)C1)Nc1cc(OC)c(O)cc14)[C@@H]32 [JERANTININE E] | 2030 | 2550
COC(=O)C1=C2Nc3cc(OC)c(O)cc3[C@@]23CCN2CC[C@@H]4OCC[C@]4(C1)[C@H]23 [JERANTININE F] | 12300 | 12800
CC[C@]1(O)C[C@H]2CN(CCc3c([nH]c4ccccc34)[C@@](C(=O)OC)(c3cc4c(cc3OC)N(C=O)[C@H]3[C@@](O)(C(=O)OC)[C@H](OC(C)=O)[C@]5(CC)C=CCN6CC[C@]43[C@@H]65)C2)C1 [VINCRISTINE] | 1200 | 5.4
